Calls of active or inactive are those of the source.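 Rule for the calls: active = AC50, the dose giving half-maximal effect, exceeds a fixed cutoff for a compound that rescues yeast growth under heat; inactive = the rest, inconclusive results apart.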
System: S. cerevisiae Burl-1 ts mutant growth, BacTiter-Glo, 38.5C 24 h
Assay: restored growth of temperature-sensitive Burl-1 yeast – whole organism, S. cerevisiae, Burl-1 ts mutant, luminescence, counter-screen for SUMOylation pathway inhibitor project, dose response (AID 463199)

SMILES	AC50
C=CCSC1=C(C#N)C(c2ccc(C(C)C)cc2)CC(=O)N1 (stereo unspecified)	> 42 µM (inactive)
CCn1c(SCC(=O)NC2CCCCC2)nnc1C(C)NC(=O)c1ccccc1F (stereo unspecified)	> 42 µM (inactive)
O=c1oc2cc(S(=O)(=O)NCCCO)ccc2c2ccc(S(=O)(=O)NCCCO)cc12	> 42 µM (inactive)
NNC(=O)c1oc2nc(-c3ccccc3)cc(-c3ccccc3)c2c1N	> 42 µM (inactive)
CCOc1ccc(S(=O)(=O)N2CCC(C(=O)N3CCN(c4ccccc4)CC3)CC2)cc1	> 42 µM (inactive)
COc1ccc(C(=O)CC(=O)C(=O)Nc2ccc(C)c(C)c2)cc1	> 42 µM (inactive)
CCOC(=O)C1(c2ccccc2)CCN(CCC(=O)Nc2ccccc2OC)CC1	> 42 µM (inactive)
NC1=NC2(CCCC2)N=C(Nc2ccccc2)N1	> 42 µM (inactive)
Cc1ccc(S(=O)(=O)N2CCCC2C(=O)NCCc2ccccc2)cc1 (stereo unspecified)	> 42 µM (inactive)
CCc1c(C)nc(N2CCN(Cc3ccccc3)CC2)[nH]c1=O	> 42 µM (inactive)
Cc1ccc(Oc2ccc(OCC(=O)Nc3ccncc3)cc2)cc1	> 42 µM (inactive)
CC1CN=C(NCc2ccccc2)S1 (stereo unspecified)	> 42 µM (inactive)
CCc1ccc(NC(=S)N(Cc2cccc(Br)c2)CC2CCC(C(=O)O)CC2)cc1 (stereo unspecified)	> 42 µM (inactive)
O=C(CC(c1ccccc1)c1ccccc1)NCCOCc1ccccc1	> 42 µM (inactive)
CCOC(=O)c1c(/N=C/C2C(=O)CCCC2=O)sc2c1CCCC2	> 42 µM (inactive)
COc1ccc(CCNC(=O)C/C(C)=N/NC(=O)COc2ccc(C)cc2Br)cc1OC	> 42 µM (inactive)
COc1cc(C(=O)OCC(=O)NC(C)CCc2ccccc2)cc(OC)c1OC (stereo unspecified)	> 42 µM (inactive)
CCOc1ccccc1NC(=O)CSc1nc(N)c(C#N)cc1C#N	> 42 µM (inactive)
O=S1(=O)NC(c2ccccc2)CC(CC2CCCCC2)O1 (stereo unspecified)	> 42 µM (inactive)
CC1(C)Cc2c(cnn2-c2ccc(F)cc2)C(NC(=O)CCCN2CCCCC2=O)C1 (stereo unspecified)	> 42 µM (inactive)
CSc1ccccc1NC(=O)COc1nsnc1N1CCOCC1	> 42 µM (inactive)
COc1cc(C(=O)OCC(=O)NCc2ccccc2)cc(NC(=O)c2ccco2)c1OC	> 42 µM (inactive)
Cc1ccc(C(=O)NC(NC(=O)c2ccc(C)cc2)C(Cl)Cl)cc1	> 42 µM (inactive)
CCN=C1S/C(=C/c2ccc(-c3ccc(F)cc3)o2)C(=O)N1CC	> 42 µM (inactive)

SMILES	AC50
O=C(NCc1ccccc1)c1cccc(COc2ccc(Cl)cc2)c1	> 42 µM (inactive)
C/C(N)=C(/C#N)C(=O)CSc1nnc(-c2ccccc2)n1C	> 42 µM (inactive)
Cc1ccccc1P(=O)(CO)c1ccccc1C	> 42 µM (inactive)
CN1C(=O)C(O)(CC(=O)c2ccccc2O)c2cc(Br)ccc21 (stereo unspecified)	> 42 µM (inactive)
COc1ccc(NC(=O)CSc2nccc(C)n2)cc1	> 42 µM (inactive)
COC(=O)c1cccc(NC(=O)c2cccnc2)c1	> 42 µM (inactive)
COc1ccc(-c2cn(-c3ccc(C)cc3)c(=O)n2CC(=O)Nc2ccc(OC)c(OC)c2)cc1	> 42 µM (inactive)
O=C1c2ccccc2C(=O)N1CCCCSc1nc2ccccc2c(=O)n1CCCN1CCOCC1	> 42 µM (inactive)
Cc1c(C)c2c(c(C)c1O)CCC(C)(C(=O)O)O2 (stereo unspecified)	> 42 µM (inactive)
CCN(CC)C(=O)C1CCCN(c2ccc([N+](=O)[O-])cc2/C=N/NC(=O)c2cccc(Br)c2)C1 (stereo unspecified)	> 42 µM (inactive)
COc1ccc(-c2cc(=O)c3cc(O)ccc3o2)cc1	> 42 µM (inactive)
COc1ccccc1C(=O)N(NC(=O)Oc1ccccc1)C(C)(C)C	> 42 µM (inactive)
COc1cc(NC(=O)C2=CC(c3ccco3)=NS(=O)(=O)N2C)cc(OC)c1OC	> 42 µM (inactive)
Cc1ccc(S(=O)(=O)NCC(=O)OCC(=O)c2ccc(Br)s2)cc1	> 42 µM (inactive)
Cc1ccc(C)c(N2CCN(C(c3ccncc3)c3nnnn3Cc3ccccc3)CC2)c1 (stereo unspecified)	32.8 µM
CCn1c(SCC(=O)Nc2ccc(NC(=O)c3ccco3)cc2)nnc1-c1cccs1	> 42 µM (inactive)
CCOc1ccc(S(=O)(=O)N2CCN(C(=O)CN3C(=O)NC4(CCCC4)C3=O)CC2)cc1	> 42 µM (inactive)
Cc1cc(C)c2nc(-c3cccnc3)cc(C(=O)Nc3ccc(S(=O)(=O)Nc4onc(C)c4C)cc3)c2c1	> 42 µM (inactive)
COc1ccc(N2C(=O)CSC2c2ccc([N+](=O)[O-])cc2)cc1 (stereo unspecified)	> 42 µM (inactive)
Cc1nn(C)c(Cl)c1CN1CCN(CCC(C)C)C(CCO)C1 (stereo unspecified)	> 42 µM (inactive)
O=C(Nc1nc(-c2ccccn2)cs1)c1ccc2c(c1)OCCO2	> 42 µM (inactive)
CN(C)CCCN(Cc1ccccc1)C(=S)Nc1ccc(F)c(Cl)c1	> 42 µM (inactive)
CC1=C(C(=O)OCc2ccccc2)C(c2cccc(F)c2)NC(=O)N1 (stereo unspecified)	> 42 µM (inactive)
Oc1cccc(/C=N/N2CCN(c3ccccn3)CC2)c1	> 21 µM (inactive)

SMILES	AC50
COc1ccc(-c2[nH]ncc2CNCCn2cccn2)c(F)c1	> 42 µM (inactive)
O=[N+]([O-])c1ccc(-c2csc(N3CCc4ccccc4C3)n2)cc1	> 42 µM (inactive)
COc1ccc(C(=O)N2CCN(c3ccc(NC(=O)c4cccnc4)cc3)CC2)cc1	> 42 µM (inactive)
CC(=O)N1CCN(CC(O)COc2ccc(OCc3ccccc3)cc2)CC1 (stereo unspecified)	> 42 µM (inactive)
Cc1ccc(C(C[N+](=O)[O-])c2c(C)[nH]n(-c3ccccc3)c2=O)cc1 (stereo unspecified)	39.7 µM
COc1ccc(CCNC(=O)CC2C(=O)NCCN2CC(C)(C)C)cc1 (stereo unspecified)	> 42 µM (inactive)
C=C(Cl)COC(=O)C1C2C=CC(C2)C1C(=O)O (stereo unspecified)	> 42 µM (inactive)
Cc1sc2ncn(C(C)C(=O)OC3CCCCC3)c(=O)c2c1C (stereo unspecified)	> 42 µM (inactive)
Cc1ccc(-c2csc(NC(=O)CSc3nc(C)cs3)n2)cc1	> 42 µM (inactive)
CCCOC(=O)c1c(NC(=O)/C=C/c2cnn(C)c2C)sc(C(=O)OC)c1C	> 42 µM (inactive)
O=C(CCNC(=O)c1ccccc1)Nc1cccnc1	> 42 µM (inactive)
CCOC(=O)c1cc2sc(C)cc2n1CC(=O)Nc1ccc2c(c1)OCCO2	> 42 µM (inactive)
Cc1[nH]oc(=O)c1N=Nc1c(Cl)cccc1Cl	> 42 µM (inactive)
C[C@H]1CN=C(Nc2ccccc2)N1CCC1CCCC1	> 42 µM (inactive)
O=C(CN1CCN(c2nc(-c3ccccc3)cs2)CC1)NNC(=O)c1ccc(Br)cc1	> 42 µM (inactive)
O=C(COc1ccccc1)NCCS(=O)(=O)N1CCN(c2ccccc2)CC1	> 42 µM (inactive)
CCOc1ncccc1C(=O)OCC(=O)N(CC)c1ccccc1	> 42 µM (inactive)
CC(C)NC(=O)NC(=O)COC(=O)CCCSc1nc2ccccc2s1	> 42 µM (inactive)
CN(C)C(/C=C/Nc1cccc(Br)c1)=C(C#N)C#N	> 42 µM (inactive)
NS(=O)(=O)c1ccc(CCNC(=O)CN2CCN(c3ccc(F)cc3)CC2)cc1	> 42 µM (inactive)
CCN1C(=NCCCCO)N[C@@H](c2cccc(C(F)(F)F)c2)C(C(=O)OC)=C1C	> 42 µM (inactive)
CN(C)CCNC(=O)c1onc(CSc2ccc(F)c(F)c2)c1C(=O)NCCN(C)C	> 42 µM (inactive)
Cc1cccc(N=Nc2ccc(N(C)C)cc2)c1	> 42 µM (inactive)

Reference: PubChem BioAssay AID463199 (Broad Institute, 2010)
